System: 5α-reductase
Test: Inhibition of 5α-reductase in vivo (castrated male rats, organ weights and LH/FSH after 10 daily doses)
Design: species or system albino rats
Procedure: The in vivo testing was carried out as follows:
Adult male albino rats weighing 200 g were castrated. Two hours later they received the first of 10 daily dosages of the test substance suspended in 0.5% carboxymethylcellulose, 0.4% Tween 80 and 0.9% benzyl alcohol in physiological sodium chloride solution. Three hours after the last medication on the tenth day of treatment, the animals were decapitated, the blood from the body was collected, and the seminal vesicles, the ventral prostate and the Levator ani muscle were removed and weighed. The results are given as ng of NIAMDD-RP-1/ml.
VP: Ventral prostrate, SV: Seminal vesicle, MLA: Levator ani muscle
LH: Luteinizing hormone, FSH: Follicle stimulating hormone

[1] = T sc 0.5 mg/kg alone, experiment with F
[2] = T sc 0.5 mg/kg alone, experiment with L po
[3] = Testosterone sc 0.5 mg/kg alone, experiment with D
[4] = TP 0.5 mg/kg alone, experiment with A
[5] = TP sc 0.5 mg/kg alone, experiment with L sc
[6] = A sc 15 mg/kg + TP sc 0.5 mg/kg
[7] = L sc 15 mg/kg + TP sc 0.5 mg/kg

C[C@]12CC[C@H]3[C@@H](CCC4=CC(=O)CC[C@@]43C)[C@@H]1CC[C@@H]2O [T, Testosterone]
LH (luteinizing hormone) [1]: 96 ± 37 ng/mL | MLA (Levator ani muscle weight) [1]: 126 ± 7 mg | SV (seminal vesicle weight) [1]: 85 ± 7 mg | VP (ventral prostate weight) [1]: 128 ± 12 mg | MLA (Levator ani muscle weight) [2]: 109 ± 8 mg | SV (seminal vesicle weight) [2]: 92 ± 13 mg | VP (ventral prostate weight) [2]: 96 ± 10 mg | FSH (follicle stimulating hormone) [3]: 1206 ± 114 ng/mL | LH (luteinizing hormone) [3]: 104 ± 25 ng/mL | MLA (Levator ani muscle weight) [3]: 108 ± 5 mg | SV (seminal vesicle weight) [3]: 65 ± 5 mg | VP (ventral prostate weight) [3]: 112 ± 10 mg

CCC(=O)O[C@H]1CC[C@H]2[C@@H]3CCC4=CC(=O)CC[C@]4(C)[C@H]3CC[C@]12C [TP, Testosterone propionate]
FSH (follicle stimulating hormone) [4]: 783 ± 167 ng/mL | LH (luteinizing hormone) [4]: 101 ± 36 ng/mL | MLA (Levator ani muscle weight) [4]: 137 ± 7 mg | SV (seminal vesicle weight) [4]: 215 ± 13 mg | VP (ventral prostate weight) [4]: 160 ± 18 mg | FSH (follicle stimulating hormone) [5]: 915 ± 37 ng/mL | LH (luteinizing hormone) [5]: 121 ± 12 ng/mL | MLA (Levator ani muscle weight) [5]: 75 ± 4 mg | SV (seminal vesicle weight) [5]: 69 ± 3 mg | VP (ventral prostate weight) [5]: 108 ± 6 mg

C[C@]12CC[C@H]3[C@@H](CCC4=CC(=O)CC[C@@]43C)[C@@H]1CCC[C@@H]2C(=O)O [Test substance A, 3-oxo-D-homo-androst-4-ene-17aα-carboxylic acid]
FSH (follicle stimulating hormone) [6]: 1268 ± 125 ng/mL | LH (luteinizing hormone) [6]: 283 ± 41 ng/mL | MLA (Levator ani muscle weight) [6]: 118 ± 8 mg | SV (seminal vesicle weight) [6]: 157 ± 15 mg | VP (ventral prostate weight) [6]: 116 ± 11 mg

COC(=O)[C@H]1CCC[C@H]2[C@@H]3CCC4=C(Cl)C(=O)CC[C@]4(C)[C@H]3CC[C@]12C [Test substance D, methyl 4-chloro-3-oxo-D-homo-androst-4-ene-17aβ-carboxylate]
FSH (follicle stimulating hormone) (D sc 10 mg/kg + T sc 0.5 mg/kg): 1325 ± 93 ng/mL | LH (luteinizing hormone) (D sc 10 mg/kg + T sc 0.5 mg/kg): 244 ± 45 ng/mL | MLA (Levator ani muscle weight) (D sc 10 mg/kg + T sc 0.5 mg/kg): 83 ± 6 mg | SV (seminal vesicle weight) (D sc 10 mg/kg + T sc 0.5 mg/kg): 51 ± 9 mg | VP (ventral prostate weight) (D sc 10 mg/kg + T sc 0.5 mg/kg): 95 ± 10 mg

C[C@]12CCC(=O)C=C1CC[C@@H]1[C@@H]2CC[C@@]2(C)[C@H]1CC=C[C@@]21CCCO1 [Test substance F, 4,5-dihydrospiro[furan-2(3H),17'a(β1)-D-homo-androsta-4,16-dien]-3'-one]
LH (luteinizing hormone) (F sc 10 mg/kg + T sc 0.5 mg/kg): 88 ± 15 ng/mL | MLA (Levator ani muscle weight) (F sc 10 mg/kg + T sc 0.5 mg/kg): 105 ± 6 mg | SV (seminal vesicle weight) (F sc 10 mg/kg + T sc 0.5 mg/kg): 66 ± 4 mg | VP (ventral prostate weight) (F sc 10 mg/kg + T sc 0.5 mg/kg): 93 ± 10 mg

COC(=O)C1=CCC[C@H]2[C@@H]3CCC4=CC(=O)CC[C@]4(C)[C@H]3CC[C@]12C [Test substance L, methyl 3-oxo-D-homo-androsta-4,17-diene-17a-carboxylate]
MLA (Levator ani muscle weight) (L po 30 mg/kg + T sc 0.5 mg/kg): 88 ± 17 mg | SV (seminal vesicle weight) (L po 30 mg/kg + T sc 0.5 mg/kg): 68 ± 13 mg | VP (ventral prostate weight) (L po 30 mg/kg + T sc 0.5 mg/kg): 81 ± 16 mg | FSH (follicle stimulating hormone) [7]: 1099 ± 94 ng/mL | LH (luteinizing hormone) [7]: 163 ± 30 ng/mL | MLA (Levator ani muscle weight) [7]: 67 ± 6 mg | SV (seminal vesicle weight) [7]: 52 ± 1 mg | VP (ventral prostate weight) [7]: 80 ± 6 mg
